Measured values from patent US10364216B2, “Alkenyl sulfate ester or salt thereof” (Kao Corporation, priority 2013, dated 2019).
Structures can show the parent of a compound that is named as a salt.

How the values were obtained:
[1] = Evaluation of sweetness (1)/(2): presence or absence of sweetness judged by examiners; type: in vivo, human
Protocol: Trans-3-octenyl sulfate was dissolved in water to be 1 wt %, which was taken as a test sample. Six examiners kept 50 μL of the prepared test sample in their mouth, and then drunk some water, and judged for presence or absence of sweetness.
Cis-3-octenyl sulfate was dissolved in water to 1 wt %, which was taken as a test sample. Four examiners kept 50 μL of the prepared test sample in their mouth, and then drunk some water, and judged presence or absence of sweetness.

[2] = Sweetness adjusting action on sucrose, aspartame, sucralose, glycyrrhizin (simultaneous intake); type: in vivo, human; details: 5 mM, taken simultaneously with sweetener
Protocol: To seven examiners, four kinds of 10 mL aqueous sucrose standard solutions (2.5, 5.0, 7.5 and 10.0 wt %) were presented. The examiners kept each of the solutions in their mouth for 5 seconds or so, and then spat the solution out, and were asked to consider the sweetness intensity at that time (0 to 15) to be 2.5, 5, 7.5 and 10, respectively. Next, the examiners kept 10 mL aqueous solution (7.5 wt %) of sucrose in their mouth for 5 seconds or so without knowing the kind and the concentration of the sweetener, and then spat the solution out, and compared the sweetness intensity at that time with that of the aqueous sucrose standard solution, and evaluated the sweetness intensity with a number in a range of 0 to 15. In addition, after 30 seconds, the examiners kept 10 mL pure water in their mouth, and then spat the solution out, and compared the sweetness intensity felt at that time with that of the aqueous sucrose standard solution, and evaluated the sweetness intensity in the same manner. Subsequently, the examiners were presented with 10 mL aqueous sucrose solution containing 5 mM trans-3-octenyl sulfate (7.5 wt %), and kept it in their mouth for 5 seconds or so, and then spat the solution out, and compared the sweetness intensity at that time with the sweetness intensity of the aqueous sucrose standard solution, and evaluated the sweetness intensity in the same manner. In addition, immediately after that, the examiners kept 10 mL pure water in their mouth for 5 seconds or so, and then spat the solution out, and compared the sweetness intensity at that time with that of the aqueous sucrose standard solution, and evaluated the sweetness intensity in the same manner. In addition, after 30 seconds, the examiners kept 10 mL pure water in their mouth, and then spat the solution out, and compared the sweetness intensity felt at that time with that of the aqueous sucrose standard solution, and evaluated the sweetness intensity in the same manner.
To seven examiners, 4 kinds of 10 mL aqueous sucrose standard solutions (2.5, 5.0, 7.5 and 10.0 wt %) were presented. The examiners kept each of the solutions in their mouth for 5 seconds or so, and then spat the solution out, and were asked to consider the sweetness intensity at that time (0 to 15) to be 2.5, 5, 7.5 and 10, respectively. Next, the examiners kept 10 mL aqueous solution of aspartame (494 ppm) in their mouth for 5 seconds or so without knowing the kind and the concentration of the sweetener, and then spat the solution out, and compared the sweetness intensity at that time with that of the aqueous sucrose standard solution, and evaluated the sweetness intensity with a number in a range of 0 to 15. The concentration of aspartame was prepared to have the same sweetness intensity as that of the aqueous sucrose solution (7.5 wt %) in accordance with the reference (Schiffman, S. S. et al. Chemical senses, 1999, 24, 439-447.). In addition, after 30 seconds, the examiners kept 10 mL pure water in their mouth, and then spat the solution out, and compared the sweetness intensity felt at that time with that of the aqueous sucrose standard solution, and evaluated the sweetness intensity in the same manner. Subsequently, the examiners were presented with 10 mL aqueous solution of aspartame containing 5 mM trans-3-octenyl sulfate (494 ppm), and kept it in their mouth for 5 seconds or so, and then spat the solution out, and compared the sweetness intensity at that time with the sweetness intensity of the sucrose standard solution, and evaluated the sweetness intensity in the same manner. In addition, after 30 seconds, the examiners kept 10 mL pure water in their mouth, and then spat the solution out, and compared the sweetness intensity felt at that time with that of the aqueous sucrose standard solution, and evaluated the sweetness intensity in the same manner. […]

[3] = system: oocytes not expressing ENaC; experiment: Control: inward current in oocytes not expressing ENaC; type: cell-based, Xenopus; details: same procedure
Protocol: Inhibition activity of ENaC expressed in Xenopus oocytes was measured according to the method described in “The journal of biological chemistry, 284 (2): pages 792-798 (2009)”. Specifically, trans-3-octenyl sulfate was added to oocytes expressed with ENaC complex, and the activity of ENaC was analyzed electrophysiologically in accordance with the procedures described below.
Two micro-glass electrodes were inserted into the oocyte, and the membrane potential was fixed at −60 mV. At this time, Na^+ ion influx induced by ENaC complex in a constantly active state was measured with replacement to change of the current amount. Namely, in 115 mM NaCl solution (115 mM NaCl, 2.5 mM KCl, 1.8 mM CaCl2, 1 mM NaHCO3, 1 mM MgCl2 and 10 mM HEPES, pH 7.4) and under circumstances where inward current was caused by the oocytes, trans-3-octenyl sulfate dissolved in the same solution was administered.
This effect was similar to that of an existing ENaC inhibitor amiloride.

[4] = 1 wt % in water, 50 μL kept in mouth, then water (13 ml), six examiners (trans), four examiners (cis)

CCCC/C=C/CCOS(=O)(=O)O [trans-3-octenyl sulfate]
No sweetness felt (number of examiners) [1, 4]: 0 | Sweetness felt (number of examiners) [1, 4]: 6 | Duration of sweetness ([1]; 1 wt %, 50 μL, then water): the sweetness lasted for a certain time | Effect on aftertaste of sweetness remaining in the mouth [2]: reinforces the aftertaste of sweetness remaining in the mouth | Effect on first taste of sweetness immediately after taking sucrose, aspartame, sucralose or glycyrrhizin [2]: inhibits the first taste of sweetness | Effect on inward current in oocytes not expressing ENaC [3]: not recognized
